Measured values published in PubChem BioAssay (NCI).
Where “and” joins values, the source holds several entries; their conditions need not be identical. Identical values can stand only once.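 1) Cells in 96-well plates. 2) Compound, 48 h, 5 concentrations. 3) Linear interpolation between surrounding doses. 4) Unreached endpoint = highest concentration. Here, GI50 denotes the concentration required for 50% inhibition of growth. TGI is the concentration that stops growth completely.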

Assays:
Experiment in all cases: NCI tumour cell line growth inhibition, 48 h
SK-MEL-5 melanoma = system: SK-MEL-5 melanoma
SN12K1 renal = system: SN12K1 renal
CCRF-CEM leukemia = system: CCRF-CEM leukemia
A498 renal = system: A498 renal
RPMI-8226 leukemia = system: RPMI-8226 leukemia
BT-549 breast = system: BT-549 breast
MDA-MB-435 = system: MDA-MB-435
SK-OV-3 ovarian = system: SK-OV-3 ovarian
HOP-62 NSCLC = system: HOP-62 NSCLC
OVCAR-3 ovarian = system: OVCAR-3 ovarian
UACC-257 melanoma = system: UACC-257 melanoma
PC-3 prostate = system: PC-3 prostate
OVCAR-8 ovarian = system: OVCAR-8 ovarian
P388/ADR leukemia = system: P388/ADR leukemia
RXF 393 renal = system: RXF 393 renal
XF 498 CNS = system: XF 498 CNS
P388 leukemia = system: P388 leukemia

Structure (SMILES) | TGI (SK-MEL-5 melanoma) | GI50 (CCRF-CEM leukemia) [µM] | TGI (CCRF-CEM leukemia) | GI50 (A498 renal) [µM] | GI50 (RPMI-8226 leukemia) [µM] | TGI (RPMI-8226 leukemia) | TGI (BT-549 breast) | GI50 (MDA-MB-435) [µM] | TGI (SK-OV-3 ovarian) | TGI (HOP-62 NSCLC) | GI50 (OVCAR-3 ovarian) [µM] | GI50 (UACC-257 melanoma) [µM] | TGI (UACC-257 melanoma) | GI50 (PC-3 prostate) [µM] | TGI (PC-3 prostate) | GI50 (OVCAR-8 ovarian) [µM] | TGI (RXF 393 renal) | further results
COc1cccc2c1C(CO)N1C(C#N)C3CC(C(=O)O)C(C1C2)N3C (stereo not drawn) | 4.07 µM and 0.985 µM | 0.0877 | 8.55 µM and > 17 µM | 0.304 | 0.0637 | 3.94 µM and 1.54 µM | 0.739 µM and 1.94 µM | 0.168 | 8.34 µM and > 31.1 µM | 8.15 µM and 3.73 µM | 0.305 | 0.331 | 3.96 µM and 2.11 µM | 0.462 | > 100 µM | 0.372 | 1.85 µM and 0.571 µM | GI50 (SK-MEL-5 melanoma): 0.383 µM; TGI (SN12K1 renal): > 100 µM; GI50 (SK-OV-3 ovarian): 2.6 µM; TGI (P388/ADR leukemia): 1.09 µM; GI50 (RXF 393 renal): 0.203 µM; GI50 (XF 498 CNS): 1.79 µM; TGI (P388 leukemia): 6.42 µM
CCCCCCCCCCCCCCCCCCOP(=O)([O-])OC1CC[N+](C)(C)CC1 | 29.7 µM | 2.73 | 7.55 µM and 10.5 µM | 2 | 1.18 | > 10 µM and 13.8 µM | > 10 µM and 27.5 µM | 5.91 | > 10 µM and 19.1 µM | > 10 µM and 20.7 µM | > 10 | > 10 | > 10 µM and 45.7 µM | 0.707 | 3.46 µM and 3.75 µM | > 10 | 5.55 µM and 8.04 µM | TGI (A498 renal): 7.6 µM and 14.8 µM; GI50 (BT-549 breast): 5.76 µM; TGI (MDA-MB-435): > 10 µM and 30.3 µM; GI50 (HOP-62 NSCLC): 3.2 µM; TGI (OVCAR-3 ovarian): > 10 µM and 23 µM; TGI (OVCAR-8 ovarian): > 10 µM and 28.8 µM; TGI (XF 498 CNS): 29.1 µM
